Holding throughout (assay): DTP human tumour cell line panel, 48 h
Test [1] concerns A498.
The test system of test [2] is A549.
Test [3] has as its system DU-145.
Test [4] has as its system HCC 2998.
The subject of test [5] is HCT-15.
In test [6] the test system is HOP-92.
Test [7] relates to HT-29.
In test [8] the test system is Hs-578T.
The test system of test [9] is K562.
In test [10] the test system is MDA-MB-231.
Test [11] has as its system NCI-H522.
Test [12] concerns OVCAR-3.
For test [13], the system named is OVCAR-8.
For test [14], the system named is SF-268.
For test [15], the system named is SF-295.
Test [16] concerns SK-MEL-5.
For test [17], the system named is T47D.
Test [18] deals with UACC-62.
Test [19] concerns HCT-116.

These results are taken from ChEMBL document CHEMBL1201862, “PubChem BioAssay data set” (2004).

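The compound was tested at five concentrations on cells cultured in 96-well plates, with a 48-hour exposure period. At the GI50, growth is halved.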 Active and inactive are the calls of the source. Rule as the data show it: active = GI50 up to about 1.1 µM and inactive = higher.

On to `O=C1O/C(=C\c2ccc(O)cc2)C(c2ccc(O)c(Cl)c2)=C1Cl`, for which the GI50 was 33.6 µM (inactive) in test [1]; 40.1 µM (inactive) in test [2]; > 100 µM (inactive) in test [3]; 38.2 µM (inactive) in test [4]; 50 µM in [5]; 26.5 µM (inactive) in test [6]. The GI50 in test [7] is 53.2 µM (inactive); in test [8], > 100 µM (inactive); in test [9], 57.1 µM (inactive); in test [10], 77.4 µM (inactive); in test [11], 23 µM (inactive); in test [12], 38.1 µM (inactive). In addition, the GI50 in test [13] is 49.5 µM (inactive); in [14], 29.2 µM (inactive); in test [15] it was 39.4 µM (inactive); in test [16], 18.5 µM (inactive); in test [17] it was 59.7 µM (inactive); in [18], 32.1 µM (inactive).
`N#Cc1nc(-c2ccccc2O)oc1N`: the GI50 is 80.9 µM (inactive) in [1]; 63.5 µM (inactive) in [2]; > 100 µM (inactive) in test [3]; 78.2 µM (inactive) in [19]; 43.5 µM in test [5]; > 100 µM (inactive) in test [6]. For the same compound, the GI50 in test [7] is > 100 µM (inactive); in test [8], 40.9 µM (inactive); in test [9], 29.9 µM (inactive); in test [10], > 100 µM (inactive); in test [13], 89.1 µM (inactive); in [14], 64.3 µM (inactive). In addition, the GI50 is 61.4 µM (inactive) in test [16] and 95.9 µM (inactive) in [18].
Take `C[n+]1cccc2ccc(OC(=O)c3ccccc3)cc21`: the GI50 in test [1] was > 100 µM (inactive); in test [2], > 100 µM (inactive); in [3], > 100 µM (inactive); in [19], > 100 µM (inactive); in [5], greater than 100 µM; in test [6], > 100 µM (inactive). Further, the GI50 in test [7], in test [8], in [9], in [11], in test [12] and in test [13] was > 100 µM (inactive) each time. The GI50 in test [14], in test [15], in test [16], in test [17] and in [18] was > 100 µM (inactive) throughout.
For `CC1(C)OC[C@@H]([C@H](C=O)OCc2ccccc2)O1`, the GI50 in [1] is > 100 µM (inactive); in test [2] it was > 100 µM (inactive); in test [3] it was > 100 µM (inactive); in [19], > 100 µM (inactive); in [5], greater than 100 µM; in [6], > 100 µM (inactive). Further, the GI50 in test [7], in test [8], in test [9], in test [10], in test [12] and in test [13] was > 100 µM (inactive) throughout. In addition, the GI50 in test [14], in test [15], in test [16] and in test [18] was > 100 µM (inactive) in each case.
In the case of `O=C1CSC(/C(=C/c2ccccc2)c2nc3ccccc3[nH]2)=N1`, the GI50 was > 100 µM (inactive) in test [1]; 72.6 µM (inactive) in [2]; > 100 µM (inactive) in test [4]; 41.7 µM (inactive) in test [19]; greater than 100 µM in [5]; 61.4 µM (inactive) in test [6]. In addition, the GI50 in [7] was 73.6 µM (inactive); in [9], > 100 µM (inactive); in [11], 41.9 µM (inactive); in test [12], > 10 µM (inactive); in test [13], 47.2 µM (inactive); in test [14], > 100 µM (inactive). Besides, the GI50 in test [15] was 63.8 µM (inactive); in [16] it was 19.7 µM (inactive); in test [18] it was 49.8 µM (inactive).
On to `COc1cc2nn(-c3ccccc3)nc2c2nonc12`, for which the GI50 in test [1] was > 100 µM (inactive); in [2] it was > 100 µM (inactive); in [3] it was > 100 µM (inactive); in test [4] it was > 100 µM (inactive); in test [19], 41 µM (inactive); in [5], greater than 100 µM. Besides, the GI50 in [7] is > 100 µM (inactive); in test [8], 77.3 µM (inactive); in test [9], > 100 µM (inactive); in test [10], > 100 µM (inactive); in [11] it was > 100 µM (inactive); in test [12], > 100 µM (inactive). Further, the GI50 in [14], in test [15], in test [16], in test [17] and in [18] was > 100 µM (inactive) each time.
Regarding `CCc1cccc(CC)c1NC(=O)C1=C(C)NC(C)=C(C(=O)Nc2c(CC)cccc2CC)C1c1ccc2c(c1)OCO2`, the GI50 in [1] was 21.7 µM (inactive); in test [2], 25.9 µM (inactive); in test [4] it was 21.6 µM (inactive); in test [19], 18.2 µM (inactive); in test [5] it was 12.4 µM; in test [6] it was 14 µM (inactive). For the same compound, the GI50 in test [7] was 15.9 µM (inactive); in test [9], 15.6 µM (inactive); in test [11] it was 13.8 µM (inactive); in test [12] it was 13.9 µM (inactive); in [13], 18.5 µM (inactive); in test [14], 18.1 µM (inactive). The GI50 in test [15] is 13.9 µM (inactive); in test [16], 18.1 µM (inactive); in test [18], 12.6 µM (inactive).
On to `C/C(=N/Nc1ccc([N+](=O)[O-])cc1[N+](=O)[O-])C(CC(C(=O)Nc1ccccc1C)/C(C)=N\Nc1ccc([N+](=O)[O-])cc1[N+](=O)[O-])C(=O)Nc1ccccc1C` (stereo not given), for which the GI50 is 14.9 µM (inactive) in test [1]; 19.7 µM (inactive) in test [2]; 21.6 µM (inactive) in [4]; 13.5 µM (inactive) in test [19]; 32.9 µM in test [5]; 7.08 µM (inactive) in test [6]. Also, the GI50 in test [7] is 14.8 µM (inactive); in [9] it was > 100 µM (inactive); in test [11], 0.424 µM (active); in [12], 7.06 µM (inactive); in test [13], 6 µM (inactive); in test [14], 7.67 µM (inactive). Further, the values for the GI50 in [15], in test [16] and in test [18] were 16.1 µM (inactive), 17.2 µM (inactive) and 19.6 µM (inactive), respectively.
With `CCOC(=O)C(=CNc1ccc(N(C2=NCC(C)S2)c2ccc(F)c(Cl)c2)cc1)C(=O)OCC` (stereo not given), the GI50 is 21.9 µM (inactive) in test [1]; 27 µM (inactive) in test [2]; 17.6 µM (inactive) in [3]; 15.2 µM (inactive) in [4]; 16 µM (inactive) in test [19]; 18.8 µM in test [5]. The GI50 was 18.1 µM (inactive) in test [6]; 18.1 µM (inactive) in test [7]; 22.8 µM (inactive) in test [8]; 44.1 µM (inactive) in [9]; 14.5 µM (inactive) in [10]; 15.7 µM (inactive) in test [11]. Also, the GI50 is 20.9 µM (inactive) in test [12]; 18.8 µM (inactive) in [13]; 22.9 µM (inactive) in test [14]; 25.4 µM (inactive) in [15]; 18.7 µM (inactive) in [16]; 13.9 µM (inactive) in test [17].

As a reminder, the GI50 is the concentration giving 50% growth inhibition.
